Experimental findings from ChEMBL document CHEMBL3822421, “Insights into the structure-activity relationship of the anticancer compound ZJ-101, a derivative of marine natural product superstolide A: A critical role played by the conjugated trienyl lactone moiety” (Bioorg Med Chem Lett, 2016) are described below.

Some results are limits rather than exact numbers.

Common to all, as to assay type: functional, cell-based
Assay [1] concerns MDA-MB-231. Description: Antiproliferative activity against human MDA-MB-231 cells after 48 to 72 hrs by Alamar blue assay.
Assay [2] has as its system RKO. The assay can be described thus: Antiproliferative activity against human RKO cells after 48 to 72 hrs by Alamar blue assay.
The nature of assay [3]: Antiproliferative activity against human SF295 cells after 48 to 72 hrs by Alamar blue assay. The following applies: SF-295.
Assay [4] concerns MCF7. The assay can be described thus: Antiproliferative activity against human MCF7 cells after 48 to 72 hrs by Alamar blue assay.

As for `CC(=O)N[C@H](C)[C@@H](O)[C@@H](C)[C@@H]1OC(=O)/C=C/C=C(C)\C=C\[C@]2(C)CCC=C[C@@H]2/C=C(C)/C=C/[C@H]1C`, the IC50 was 63 nM in assay [1], 214 nM in assay [2], 63.5 nM in assay [3] and 36.5 nM in assay [4].
On to `CC(=O)N[C@H](C)[C@@H](O)[C@@H](C)[C@@H]1OC(=O)CC/C=C(C)\C=C\[C@]2(C)CCC=C[C@@H]2/C=C(C)/C=C/[C@H]1C`, for which the IC50 in assay [1], in assay [2], in assay [3] and in assay [4] was > 5000 nM in each case.
Turning to `CC(=O)N[C@H](C)[C@@H](O)[C@@H](C)[C@@H]1OC(=O)/C=C/C=C(C)/C=C/[C@]2(C)CCC=C[C@@H]2/C=C(C)/C=C/[C@H]1C`, the 50% inhibitory concentration (IC50) in assay [1] was 384 nM; in assay [2], 1070 nM; in assay [3] it was 611 nM; in assay [4], 376 nM.
